{"source": "patent US20170049676A1", "about": "“TOPICAL COMPOSITION” (Conopco, Inc., d/b/a UNILEVER, priority 2014, published 2017)", "key": {"[1]": {"test_system": "enzyme from Salix alba (white willow)", "conditions": "cited from earlier work"}, "[2]": {"test_system": "myrosinase from Raphanus sativus var. longipinnatus (daikon)", "conditions": "cited from earlier work; for reaction velocity, % of that with 500 μM ascorbic acid: 150 μM sinigrin; for effect on enzymic activity (in words): sinigrin as substrate, pH 6.0"}, "[3]": {"test_system": "enzymes from several other Brassica species", "conditions": "cited from earlier work"}, "[4]": {"test_system": "myrosinase in partially purified extracts of six crucifers", "conditions": "cited from earlier work"}, "heme oxygenase 1 (HO-1) [5]": {"test_system": "heme oxygenase 1 (HO-1)", "test": "Heme oxygenase 1 (HO-1) ELISA on lysates of adult fibroblasts treated with isothiocyanates (Example 2)", "type": "cell-based", "conditions": "primary human adult dermal fibroblast cells; for HO-1 (pg HO-1 per μg protein): 24 hours, vehicle control 179 ± 28; for production of HO-1 (in words): either at 1 or 2 μM", "method": "Primary human adult dermal fibroblast cells were routinely cultured and passaged in Dulbecco's Modified Eagle Medium (DMEM) supplemented with 10% foetal bovine serum (FBS), known as complete medium. Cells were plated out in 12-well tissue culture plates at a seeding density of 20,000 cells per well in 1 ml of low serum medium (DMEM supplemented with 1% FBS) and incubated at 37° C. in 5% CO2 for 96-120 hours before addition of the test samples.\nThe isothiocynates (all from Sigma-Aldrich Company) sulforaphane, allyl isothiocyanate (AITC), alpha-naphthyl isothiocyanate (NITC), phenethyl isothiocyanate (PEITC) and benzyl isothiocyanate (BITC) were prepared in dimethyl sulphoxide (DMSO) and diluted in DMEM supplemented with 1% FBS to a final concentration of 1 uM and 2 uM. Dermal fibroblasts were treated with 1 ml/well of the test samples for a period of 24 hours. A solvent vehicle was included in each experimental plate.\nAfter 24 hours the cell monolayer was washed with 1 ml of Dulbecco's Phosphate Buffered Saline (DPBS) per well and lysed with 400 μl of RIPA cell lysis buffer per well. The RIPA cell lysis buffer consisted of 150 mM NaCl, 1% v/v Nonidet-P40 (Igepal CA603 from Fluke 56741), 0.1% w/v sodium dodecyl sulphate (SDS) and 0.1% w/v sodium deoxycholate in 50 mM Tris-HCL buffer at pH 7.6. Protease inhibitor tablets were added to the lysis buffer immediately prior to use, at the manufacturer's recommended level. The plates received one freeze thaw cycle to ensure complete cell lysis. The lysates were subsequently clarified by scraping the samples off the plates with a pipette tip, centrifuging at 13,000 rpm for 10 minutes and transferring the supernatant into a 96 well microtitre plate. The clarified lysates were stored at −20° C. until needed.\nThe heme oxygenase 1 (HO-1) protein concentration of each cell lysate was assayed using the Human HO-1 ELISA Kit from Assay Designs (ADI-EKS-800, Enzo Life Sciences, UK) according to the manufacturer's instructions. Briefly, […] were diluted 1 in 10 in sample diluent, and 100 μl transferred to the pre-coated anti-HO-1 immunoassay plate. A 7-point recombinant HO-1 standard curve, ranging from 25 to 0.39 ng/ml, was also prepared in sample diluent. The immunoassay plate was incubated at room temperature for 30 minutes, washed six times with Wash Buffer, and incubated for a further 60 minutes at room temperature with 100 μl/well of anti-HO-1 antibody solution. The plate was washed as above and incubated for 30 minutes at room temperature with 100 μl/well of horseradish peroxidase (HRP)-conjugate solution. Again the plate was washed as above and 100 μl/well of 3,3′,5,5′-tetramethylbenzidine (TMB)-substrate added to each well for 15 minutes at room temperature in the dark. Following the addition of 100 μl/l well of stop solution, the absorbance was read at 450 nm on a microplate reader (Dynex MRX) and the unknown lysate levels of HO-1 were extrapolated from the standard curve. […]"}, "heme oxygenase 1 (HO-1) [6]": {"test_system": "heme oxygenase 1 (HO-1)", "test": "Heme oxygenase 1 (HO-1) ELISA on lysates of fibroblasts treated 24 hours, normalised to total protein (Example 1)", "type": "cell-based, human", "conditions": "8.4 mM controls", "method": "Primary human neonatal dermal fibroblast cells were cultured and passaged in Dulbecco's Modified Eagle Medium (DMEM) supplemented with 10% foetal bovine serum (FBS), known as complete medium. Cells were routinely plated out in 24-well tissue culture plates at a seeding density of 40,000 cells per well in 1 ml complete medium, and incubated at 37° C. in 5% CO2 for 48 hours before addition of the test solutions.\nAfter removal and storage of the tissue culture supernatant, the cell monolayer was washed with 1 ml of Dulbecco's Phosphate Buffered Saline (DPBS) per well and lysed with 200 μl cell lysis buffer per well. The cell lysis buffer consisted of 0.5% w/w Triton™ X100 (octyl phenol ethoxylate) and 1 mM ethylenediaminetetraacetic acid (EDTA) in phosphate buffer solution (PBS) at pH 7.2. Protease inhibitor tablets were added to the lysis buffer immediately prior to use, at the manufacturer's recommended level. The plates received one freeze thaw cycle to ensure complete cell lysis. The lysates were subsequently clarified by scraping the samples off the plates with a pipette tip and passing them through an Acrowell™ filter plate (Pall Corporation) using an Acroprep™ vacuum manifold (Pall Corporation) into a 96 well microwell plate. The clarified lysates were stored at −20° C. until needed.\nA set of eight standard solutions ranging from 0 to 800 μg/ml protein was prepared from the supplied 2 mg/ml bovine serum albumin (BSA) stock solution. 10 μl of standard or cell lysate was added to duplicate wells of a flat-bottomed, 96-well microtitre plate. The reagent solution was prepared according to the kit instructions from 50 parts reagent A and 1 part reagent B. 200 μl of the final reagent was added to each well of the microtitre plate. The plate was mixed, covered and incubated at 37° C. for 30 minutes and absorbance read at 540 nm. A protein standard curve was constructed and used to determine the protein concentration of each individual cell lysate.\nThe heme oxygenase 1 (HO-1) protein concentration of each cell lysate was assayed using the Human Total HO-1/HMOX1 DuoSet IC assay (R&D Systems Europe Ltd) according to the manufacturer's instructions. This DuoSet IC ELISA ([…]) contains the basic components required for the development of sandwich ELISAs to measure HO-1/HMOX1 (heme oxygenase (decycling) 1 which is a human gene that encodes for the enzyme heme oxygenase 1)/HSP32 (heat shock protein 32 (Hsp32), also known as heme oxygenase 1 (HO-1)) in cell lysates. An immobilized capture antibody specific for HO-1/HMOX1/HSP32 binds both phosphorylated and unphosphorylated HO-1/HMOX1/HSP32. […]"}, "[7]": {"test_system": "primary human neonatal dermal fibroblast cells"}, "[8]": {"test_system": "primary human neonatal dermal fibroblast cells", "test": "Cytotoxicity assay, ApoTox-Glo Triplex Assay (dead-cell protease, bis-AAF-R110)"}, "[9]": {"test_system": "rat basophilic leukemia (RBL-2H3) cells", "conditions": "cited from earlier work"}}, "note": "Where two headings read alike, the source gives them in different places.", "data": [{"smiles": "O=C1O[C@H]([C@@H](O)CO)C(O)=C1O", "note": "[ascorbic acid]", "values": [{"measurement": "activation by ascorbate", "setting": "[1]", "result": "2-3 fold"}, {"measurement": "reaction velocity, % of that with 500 μM ascorbic acid", "setting": "[2]; 0.75 mM ascorbic acid", "result": 90, "unit": "%"}, {"measurement": "reaction velocity, % of that with 500 μM ascorbic acid", "setting": "[2]; 1.0 mM ascorbic acid", "result": 73, "unit": "%"}, {"measurement": "effect on enzymic activity (in words)", "setting": "[2]", "result": "enzymic activity was enhanced greatly"}, {"measurement": "activation by ascorbate", "setting": "[3]", "result": "8-12 fold"}, {"measurement": "ascorbate concentrations for maximal activation of myrosinase", "setting": "[4]", "result": "0.7 to 5.0", "unit": "mM"}]}, {"smiles": "C[S+]([O-])CCCCN=C=S", "note": "(stereo not drawn) [Sulforaphane]", "values": [{"measurement": "HO-1 (pg HO-1 per μg protein)", "setting": "heme oxygenase 1 (HO-1) [5]; 1 μM", "result": "280 ± 15", "unit": "pg HO-1 per μg protein"}, {"measurement": "HO-1 (pg HO-1 per μg protein)", "setting": "heme oxygenase 1 (HO-1) [5]; 2 μM", "result": "309 ± 45", "unit": "pg HO-1 per μg protein"}, {"measurement": "production of HO-1 (in words)", "setting": "heme oxygenase 1 (HO-1) [5]", "result": "increase the production of HO-1"}]}, {"smiles": "S=C=Nc1cccc2ccccc12", "note": "[Alpha-naphthyl isothiocyanate (NITC), Alpha-naphthyl isothiocyanate]", "values": [{"measurement": "HO-1 (pg HO-1 per μg protein)", "setting": "heme oxygenase 1 (HO-1) [5]; 1 μM", "result": "195 ± 25", "unit": "pg HO-1 per μg protein"}, {"measurement": "HO-1 (pg HO-1 per μg protein)", "setting": "heme oxygenase 1 (HO-1) [5]; 2 μM", "result": "191 ± 31", "unit": "pg HO-1 per μg protein"}, {"measurement": "production of HO-1 (in words)", "setting": "heme oxygenase 1 (HO-1) [5]", "result": "increase the production of HO-1"}]}, {"smiles": "S=C=NCc1ccccc1", "note": "[Benzyl isothiocyanate (BITC), Benzyl isothiocyanate]", "values": [{"measurement": "HO-1 (pg HO-1 per μg protein)", "setting": "heme oxygenase 1 (HO-1) [5]; 1 μM", "result": "381 ± 50", "unit": "pg HO-1 per μg protein"}, {"measurement": "HO-1 (pg HO-1 per μg protein)", "setting": "heme oxygenase 1 (HO-1) [5]; 2 μM", "result": "730 ± 170", "unit": "pg HO-1 per μg protein"}, {"measurement": "production of HO-1 (in words)", "setting": "heme oxygenase 1 (HO-1) [5]", "result": "increase the production of HO-1"}]}, {"smiles": "C=CCN=C=S", "note": "[Allyl isocyanate control, Allyl isothiocyanate]", "values": [{"measurement": "Normalised HO-1 (vehicle = 100)", "setting": "heme oxygenase 1 (HO-1) [6]; dilution 1/50", "result": "335.46 ± 54.80"}, {"measurement": "Normalised HO-1 (vehicle = 100)", "setting": "heme oxygenase 1 (HO-1) [6]; dilution 1/100", "result": "383.74 ± 30.02"}, {"measurement": "inhibition of activity (in words)", "setting": "[2]; concentrations as high as 1 mM", "result": "did not significantly inhibit activity"}, {"measurement": "cytotoxicity to the fibroblast cells (in words)", "setting": "[7]", "result": "Neither myrosinase, nor the glucosinolate sinigrin, nor allyl isothiocyanate induce cytotoxicity on their own"}, {"measurement": "Cytotoxicity (RFU × 1000)", "setting": "[7]; human, 24 h, 0.168 mM", "result": "66.71 ± 4.63", "unit": "RFU × 1000"}, {"measurement": "HO-1 (pg HO-1 per μg protein)", "setting": "heme oxygenase 1 (HO-1) [5]; 1 μM", "result": "207 ± 13", "unit": "pg HO-1 per μg protein"}, {"measurement": "HO-1 (pg HO-1 per μg protein)", "setting": "heme oxygenase 1 (HO-1) [5]; 2 μM", "result": "243 ± 26", "unit": "pg HO-1 per μg protein"}, {"measurement": "production of HO-1 (in words)", "setting": "heme oxygenase 1 (HO-1) [5]", "result": "increase the production of HO-1"}]}, {"smiles": "C=CCC(=NOS(=O)(=O)O)S[C@@H]1O[C@H](CO)[C@@H](O)[C@H](O)[C@H]1O", "note": "[Sinigrin control, sinigrin (2-propenyl or allyl glucosinolate)]", "values": [{"measurement": "Normalised HO-1 (vehicle = 100)", "setting": "heme oxygenase 1 (HO-1) [6]; dilution 1/50", "result": "168.32 ± 73.93"}, {"measurement": "Normalised HO-1 (vehicle = 100)", "setting": "heme oxygenase 1 (HO-1) [6]; dilution 1/100", "result": "49.08 ± 12.98"}, {"measurement": "Cytotoxicity (RFU × 1000)", "setting": "[8]; 8.4 mM controls in complete medium, dilution 1/50, second series (untreated cells 18.63)", "result": "80.94 ± 39.75", "unit": "RFU × 1000"}, {"measurement": "cytotoxicity to the fibroblast cells (in words)", "setting": "[8]; extract without heat treatment, single components on their own at comparable levels", "result": "Neither myrosinase, nor the glucosinolate sinigrin, nor allyl isothiocyanate induce cytotoxicity on their own"}]}, {"smiles": "O=c1c(O)c(-c2ccc(O)c(O)c2)oc2cc(O)cc(O)c12", "note": "[Quercetin]", "values": [{"measurement": "Nrf2 translocation (in words)", "setting": "[9]; RBL-2H3 cells", "result": "translocate Nrf2 from cytoplasm into nucleus"}, {"measurement": "mast cell degranulation and release of histamine (in words)", "setting": "[9]", "result": "inhibit mast cell degranulation and subsequent release of histamine"}]}, {"smiles": "S=C=NCCc1ccccc1", "note": "[Phenethyl isothiocyanate (PEITC), Phenethyl isothiocyanate]", "values": [{"measurement": "HO-1 (pg HO-1 per μg protein)", "setting": "heme oxygenase 1 (HO-1) [5]; 1 μM", "result": "429 ± 49", "unit": "pg HO-1 per μg protein"}, {"measurement": "HO-1 (pg HO-1 per μg protein)", "setting": "heme oxygenase 1 (HO-1) [5]; 2 μM", "result": "668 ± 101", "unit": "pg HO-1 per μg protein"}, {"measurement": "production of HO-1 (in words)", "setting": "heme oxygenase 1 (HO-1) [5]", "result": "increase the production of HO-1"}]}, {"smiles": "O=S(=O)(O)O", "note": "[sulphate]", "values": [{"measurement": "effect on enzymic activity (in words)", "setting": "[2]", "result": "inhibited activity competitively"}]}]}
